Experiments:
human orexin-2 receptor = human orexin-2 receptor (Homo sapiens (Human), UniProt O43614); assay: FLIPR Ca2+ Flux Assay, orexin-2 receptor; assay type: cell-based; details: CHO cells expressing the human orexin-2 receptor; agonist 70 pM Ala-6,12 orexin-A; read-out: hOX2R FLIPR IC50
Protocol: In a typical experiment the OX1 and OX2 receptor antagonistic activity of the compounds of the present invention was determined in accordance with the following experimental method. For intracellular calcium measurements, Chinese hamster ovary (CHO) cells expressing the rat orexin-1 receptor or the human orexin-2 receptor, are grown in Iscove's modified DMEM containing 2 mM L-glutamine, […], 1% hypoxanthine-thymidine supplement, 100 U/ml penicillin, 100 μg/ml streptomycin and 10% heat-inactivated fetal calf serum (FCS). The cells are seeded at 20,000 cells/well into Becton-Dickinson black 384-well clear bottom sterile plates coated with poly-D-lysine. All reagents were from GIBCO-Invitrogen Corp. The seeded plates are incubated overnight at 37° C. and 5% CO2. Ala-6,12 human orexin-A as the agonist is prepared as a 1 mM stock solution in 1% bovine serum albumin (BSA) and diluted in assay buffer (HBSS containing 20 mM HEPES, 0.1% BSA and 2.5 mM probenecid, pH7.4) for use in the assay at a final concentration of 70 pM. Test compounds are prepared as 10 mM stock solution in DMSO, then diluted in 384-well plates, first in DMSO, then assay buffer. On the day of the assay, cells are washed 3 times with 100 μl assay buffer and then incubated for 60 min (37° C., 5% CO2) in 60 μl assay buffer containing 1 μM Fluo-4 AM ester, 0.02% pluronic acid, and 1% BSA. The dye loading solution is then aspirated and cells are washed 3 times with 100 μl assay buffer. 30 μl of that same buffer is left in each well. Within the Fluorescent Imaging Plate Reader (FLIPR, Molecular Devices), test compounds are added to the plate in a volume of 25 μl, incubated for 5 min and finally 25 μl of agonist is added. Fluorescence is measured for each well at 1 second intervals for 5 minutes and the height of each fluorescence peak is compared to the height of the fluorescence peak induced by 70 pM Ala-6,12 orexin-A with buffer in place of antagonist. […] Alternatively, compound potency can be assessed by a radioligand binding assay (described in Bergman et. al. Bioorg. Med. Chem. Lett. 2008, 18, 1425-1430) in which the inhibition constant (Ki) is determined in membranes prepared from CHO cells expressing either the OX1 or OX2 receptor. The intrinsic orexin receptor antagonist activity of a compound which may be used in the present invention may be determined by these assays.

hOX1R = hOX1R (Homo sapiens, UniProt O43613); assay: FLIPR Ca2+ Flux Assay, orexin-1 receptor; assay type: cell-based; details: CHO cells expressing orexin-1 receptor; agonist 70 pM Ala-6,12 orexin-A

human orexin-2 receptor, sequence (O43614 whole entry): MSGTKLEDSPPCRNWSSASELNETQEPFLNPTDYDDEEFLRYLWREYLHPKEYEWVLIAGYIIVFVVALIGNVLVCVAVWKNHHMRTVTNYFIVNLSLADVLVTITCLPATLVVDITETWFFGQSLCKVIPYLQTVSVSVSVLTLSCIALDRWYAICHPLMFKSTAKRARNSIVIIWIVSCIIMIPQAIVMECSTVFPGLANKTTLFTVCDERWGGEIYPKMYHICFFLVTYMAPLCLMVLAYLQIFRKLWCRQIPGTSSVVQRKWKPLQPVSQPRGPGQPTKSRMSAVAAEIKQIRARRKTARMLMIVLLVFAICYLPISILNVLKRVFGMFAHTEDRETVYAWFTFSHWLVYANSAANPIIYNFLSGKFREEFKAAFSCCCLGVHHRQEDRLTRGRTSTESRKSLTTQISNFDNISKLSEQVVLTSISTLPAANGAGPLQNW

Row | Compound | IC50 (human orexin-2 receptor) [nM] | IC50 (hOX1R) [nM]
1 | CCCc1ccccc1C(=O)N(CC)CCc1cccc(C(C)(C)O)n1 [Example 16, N-ethyl-N-(2-(6-(2-hydroxypropan-2-yl)pyridin-2-yl)ethyl)-2-propylbenzamide] | 104 | > 10000
2 | CCN(CCc1cncc(C(C)(C)O)n1)C(=O)c1ccccc1-n1nccn1 [Example 39, N-Ethyl-N-{2-[6-(1-hydroxy-1-methylethyl)pyrazin-2-yl]ethyl}-2-(2H-1,2,3-triazol-2-yl)benzamide] | 68 | > 10000
3 | CCN(CCc1cc(C(C)(C)O)ccn1)C(=O)c1ccccc1-n1nccn1 [Example 1, N-Ethyl-N-{2-[4-(1-hydroxy-1-methylethyl)pyridin-2-yl]ethyl}-2-(2H-1,2,3-triazol-2-yl)benzamide] | 69 | > 10000
4 | CCN(CCc1nccc(C(C)(C)O)n1)C(=O)c1ccccc1-n1nccn1 [Example 44, N-Ethyl-N-(2-(4-(2-hydroxypropan-2-yl)pyrimidin-2-yl)ethyl)-2-(2H-1,2,3-triazol-2-yl)benzamide] | 58 | > 10000
5 | CCOc1ccccc1C(=O)N(CC)CCc1cccc(C(C)(C)O)n1 [Example 11, 2-ethoxy-N-ethyl-N-{2-[6-(1-hydroxy-1-methylethyl)pyridin-2-yl]ethyl}benzamide] | 76 | > 10000
6 | CCN(CCc1cccc(C(C)(C)O)n1)C(=O)c1ccccc1OCC(F)F [Example 20, 2-(2,2-difluoroethoxy)-N-ethyl-N-(2-(6-(2-hydroxypropan-2-yl)pyridin-2-yl)ethyl)benzamide] | 136 | > 10000
7 | CCN(CCc1nccc(C(C)O)n1)C(=O)c1ccccc1-n1nccn1 (stereo not shown) [Example 43, N-Ethyl-N-(2-(4-(1-hydroxyethyl)pyrimidin-2-yl)ethyl)-2-(2H-1,2,3-triazol-2-yl)benzamide] | 165 | > 10000
8 | CCN(CCc1cccc(C(C)(C)O)n1)C(=O)c1ccccc1-c1ncccn1 [Example 32, N-Ethyl-N-(2-(6-(2-hydroxypropan-2-yl)pyridin-2-yl)ethyl)-2-(pyrimidin-2-yl)benzamide] | 16 | 7360
9 | CCN(CCc1ccc(C(C)(C)O)cn1)C(=O)c1ccccc1CC(F)(F)F [Example 54, N-ethyl-N-{2-[5-(1-hydroxy-1-methylethyl)pyridin-2-yl]ethyl}-2-(2,2,2-trifluoroethyl)benzamide] | 440 | > 10000
10 | CCN(CCc1cccc(C(C)(C)O)n1)C(=O)c1cccnc1-n1cccn1 [Example 24, N-ethyl-N-(2-(6-(2-hydroxypropan-2-yl)pyridin-2-yl)ethyl)-2-(1H-pyrazol-1-yl)nicotinamide] | 36 | > 10000
11 | CCN(CCc1cccc(C(C)(C)O)n1)C(=O)c1ccccc1OC(F)(F)F [Example 8, N-ethyl-N-{2-[6-(1-hydroxy-1-methylethyl)pyridin-2-yl]ethyl}-2-(trifluoromethoxy)benzamide] | 32 | > 10000
12 | CCN(CCc1cccc(C(C)(C)O)n1)C(=O)c1ccccc1OCC(F)(F)F [Example 17, N-ethyl-N-(2-(6-(2-hydroxypropan-2-yl)pyridin-2-yl)ethyl)-2-(2,2,2-trifluoroethoxy)benzamide] | 261 | > 10000
13 | CCOc1ncccc1C(=O)N(CC)CCc1cccc(C(C)(C)O)n1 [Example 6, 2-ethoxy-N-ethyl-N-{2-[6-(1-hydroxy-1-methylethyl)pyridin-2-yl]ethyl}pyridine-3-carboxamide] | 206 | > 10000
14 | CCN(CCc1ccc(C(C)(C)O)cn1)C(=O)c1cccnc1OCC(F)F [Example 64, 2-(2,2-difluoroethoxy)-N-ethyl-N-{2-[5-(1-hydroxy-1-methylethyl)pyridin-2-yl]ethyl}pyridine-3-carboxamide] | 337 | > 10000
15 | CCN(CCc1cccc(C(C)(C)O)n1)C(=O)c1ccccc1OC(F)F [Example 7, 2-(difluoromethoxy)-N-ethyl-N-{2-[6-(1-hydroxy-1-methylethyl)pyridin-2-yl]ethyl}benzamide] | 196 | > 10000
16 | CCN(CCc1cncc(C(C)(C)O)c1)C(=O)c1ccccc1-n1nccn1 [Example 38, N-Ethyl-N-{2-[5-(1-hydroxy-1-methylethyl)pyridin-3-yl]ethyl}-2-(2H-1,2,3-triazol-2-yl)benzamide] | 152 | > 10000
17 | CCN(CCc1ccc(C(C)(C)O)cn1)C(=O)c1ccccc1C1CCC1 [Example 62, 2-cyclobutyl-N-ethyl-N-{2-[5-(1-hydroxy-1-methylethyl)pyridin-2-yl]ethyl}benzamide] | 62 | > 10000
18 | CCN(CCc1cccc(C(C)(C)O)n1)C(=O)c1cccnc1-c1ccccc1 [Example 14, N-ethyl-N-{2-[6-(1-hydroxy-1-methylethyl)pyridin-2-yl]ethyl}-2-phenylpyridine-3-carboxamide] | 103 | > 10000
19 | CCN(CCc1ccc(C(C)(C)O)cn1)C(=O)c1ccccc1C1CC1(F)F (stereo not shown) [Example 63, 2-(2,2-difluorocyclopropyl)-N-ethyl-N-{2-[5-(1-hydroxy-1-methylethyl)pyridin-2-yl]ethyl}benzamide] | 38 | > 10000
20 | CCN(CCc1cnc(C(C)(C)O)cn1)C(=O)c1ccccc1-n1nccn1 [Example 46, N-Ethyl-N-(2-(5-(2-hydroxypropan-2-yl)pyrazin-2-yl)ethyl)-2-(2H-H-1,2,3-triazol-2-yl)benzamide] | 170 | > 10000
21 | CCN(CCc1ccc(C(C)(C)O)cn1)C(=O)c1cccnc1-c1ccccc1 [Example 58, N-ethyl-N-{2-[5-(1-hydroxy-1-methylethyl)pyridin-2-yl]ethyl}-2-phenylpyridine-3-carboxamide] | 334 | > 10000
22 | CCN(CCc1ccc(C(C)(C)O)cn1)C(=O)c1cccnc1OCC(F)(F)F [Example 56, N-ethyl-N-{2-[5-(1-hydroxy-1-methylethyl)pyridin-2-yl]ethyl}-2-(2,2,2-trifluoroethoxy)pyridine-3-carboxamide] | 430 | > 10000
23 | CCN(CCc1ccc(C(C)(C)O)cn1)C(=O)c1ccccc1OC(F)(F)F [Example 50, N-ethyl-N-{2-[5-(1-hydroxy-1-methylethyl)pyridin-2-yl]ethyl}-2-(trifluoromethoxy)benzamide] | 239 | > 10000

Source: patent publication US10239838B2, “Heteroaryl orexin receptor antagonists” (Merck Sharp & Dohme Corp., priority 2014, dated 2019)
